This is an account of results in US10010614B2, “Derivatives of GLP-1 like peptides, and uses thereof” (Novo Nordisk A/S, priority 2013, dated 2018).

SMILES strings stand for the structures. pEC50, pIC50: −log10 of the molar value. Read-outs that look alike come from different tables or passages of the source. Numbered stars: 1 amine (or outer) side, 2 acyl side, 3 side chain; on linkers, the order of the positions; unused ones are H or OH. Square brackets hold non-standard residues; d marks the D form. Side chains are listed from the residue outwards. Peptide text beside a SMILES is read from it. * marks the point of attachment. X1 = O=C(O)CCCCCCCCCCCCCCCCCCC(=O)NCC1CCC(C(=O)*)CC1; C20 diacid = O=C(O)CCCCCCCCCCCCCCCCCCC(=O)*; γGlu = O=C(O)[C@H](CCC(=O)[*:2])N[*:1]; εLys = N[C@@H](CCCCN[*:1])C(=O)[*:2]; Trx = NC[C@H]1CC[C@H](C(=O)O)CC1; AEEA = NCCOCCOCC(=O)O; Aib = CC(C)(N)C(=O)O

Data set [1] in a line: Pharmacokinetic study in minipigs (i.v.). The format is in vivo. Particulars: male, Göttingen, minipig, plasma, iv; read-out: Terminal half-live (converted). The procedure: The purpose of this study is to determine the protraction in vivo of the GLP-1 derivatives after i.v. administration to minipigs, i.e. the prolongation of their time in the body and thereby their time of action. This is done in a pharmacokinetic (PK) study, where the terminal half-life of the derivative in question is determined. By terminal half-life is meant the time it takes to halve a certain plasma concentration in the terminal elimination phase.
The derivatives of Examples 1-5 were dosed with 2 nmol/kg, the derivative of Example 6 was dosed with 5 nmol/kg, and the derivatives of Examples 7-9 were dosed with 15 nmol/kg.
Male Göttingen minipigs were obtained from Ellegaard Göttingen Minipigs (Dalmose, Denmark) approximately 7-14 months of age and weighing approximately 16-35 kg were used in the studies. The minipigs were housed either individually (pigs with permanent catheters) or in a group and fed restrictedly once or twice daily with SDS minipig diet (Special Diets Services, Essex, UK).
After at least 2 weeks of acclimatisation two permanent central venous catheters were implanted in vena cava caudalis or cranialis in each animal. The animals were allowed 1 week recovery after the surgery, and were then used for repeated pharmacokinetic studies with a suitable wash-out period between successive GLP-1 derivative dosings.
The GLP-1 derivatives were dissolved in 50 mM sodium phosphate, 70-145 mM sodium chloride, 0.05% tween 80, pH 7.4 to a concentration of usually from 20-60 nmol/ml.
Intravenous injections (the volume corresponding to for example 0.050-0.125 ml/kg) of the compounds were given through one catheter or through the venflon, and blood was sampled at predefined time points for up till 25 days post dosing (preferably through the other catheter or by venipuncture). Blood samples (for example 0.8 ml) were collected in EDTA buffer (8 mM) and then centrifuged at 4° C. and 1942G for 10 minutes.
Plasma was pipetted into Micronic tubes on dry ice, and kept at −20° C. until analysed for plasma concentration of the respective GLP-1 compound using LOCI. Individual plasma concentration-time profiles were analyzed by a non-compartmental pharmacokinetic method in Phoenix v. 6.2 (Pharsight Inc., Mountain View, Calif., USA), or other relevant software for PK analysis, and the resulting terminal half-lives (harmonic mean) determined.

Data set [2] addresses T1, human GLP-1 receptor (Homo sapiens, UniProt P43220).
T1 construct: expressed in transfected cells; host or cells: membranes prepared from BHK cells (parent line BHKTS13), clone FCW467-12A
The data set can be described thus: GLP-1 receptor binding, competitive binding assay (125I-GLP-1, SPA) on isolated membranes.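 Also: test compounds added at a range of concentrations to membranes from cells expressing the human GLP-1 receptor, scored by displacement of labelled ligand, read with WGA SPA beads.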
Protocol: The purpose of this example is to test the receptor binding of the GLP-1 derivatives in vitro. The receptor binding is a measure of affinity of a derivative for the human GLP-1 receptor.
In this type of assay a labelled ligand (in this case ^125I-GLP-1) is bound to the receptor. Each derivative is added in a series of concentrations to isolated membranes containing the human GLP-1 receptor and displacement of the labelled ligand is monitored. The receptor binding is reported as the concentration at which half of the labelled ligand is displaced from the receptor, the IC50 value.
The following chemicals were used in the assay: Human serum albumin (HSA) (Sigma A1653), DMEM w/o phenol red (Gibco 11880-028), Pen/strep (Invitrogen 15140-122), G418 (Invitrogen 10131-027), 1 M Hepes (Gibco 15630), EDTA (Invitrogen 15575-038), PBS (Invitrogen 14190-094), fetal calf serum (Invitrogen 16140-071), EGTA, MgCl2 (Merck 1.05832.1000), Tween 20 (Amresco 0850C335), SPA particles (wheat germ agglutinin (WGA) SPA beads, Perkin Elmer RPNQ0001), [^125I]-GLP-1]-(7-36)NH2 (produced in-house), OptiPlate™-96 (Packard 6005290).
Buffer 1 consisted of 20 mM Na-HEPES plus 10 mM EDTA and pH was adjusted to 7.4. Buffer 2 consisted of 20 mM Na-HEPES plus 0.1 mM EDTA and pH was adjusted to 7.4. Assay buffer consisted of 50 mM HEPES supplemented with 5 mM EGTA, 5 mM MgCl2, 0.005% Tween 20 and pH was adjusted to 7.4. An 8% albumin stock consisted of HSA dissolved at 8% (w/v) in assay buffer. An 0.02% albumin stock consisted of HSA dissolved at 0.02% (w/v) in assay buffer.
The cells express the human GLP-1 receptor.
The cells were grown at 5% CO2 in DMEM, 10% fetal calf serum, 1% Pen/Strep (Penicillin/Streptomycin) and 1.0 mg/ml of the selection marker G418.
To make a membrane preparation the cells were grown to approximately 80% confluence. The cells were washed twice in phosphate-buffered saline and harvested. The cells were pelleted using a brief centrifugation and the cell pellet was kept on ice. The cell pellet was homogenised with ULTRA-THURRAX™ dispersing instrument for 20-30 seconds in a suitable amount of buffer 1 (e.g., 10 ml). The homogenate was centrifuged for 15 minutes. The pellet was re-suspended (homogenised) in 10 ml buffer 2 and centrifuged. This step was repeated once more. The resulting pellet was re-suspended in buffer 2 and the protein concentration was determined. The membranes were aliquoted and stored at minus 80° C.
For the receptor binding assay in the presence of low HSA (0.005%) 50 μl of the assay buffer was added to each well of an assay plate.
For the receptor binding assay in the presence of high HSA (2%) 50 μl of the 8% albumin stock was added to each well of an assay plate.
Cell membrane aliquots were thawed and diluted to their working concentration. Fifty μl were added to each well in the assay plate.
WGA SPA beads were suspended in assay buffer at 20 mg/ml. The suspension was diluted to 10 mg/ml in assay buffer just prior to addition to the assay plate. Fifty μl were added to each well in the assay plate.
The incubation was started by adding 25 μl of 480 pM solution of [^125I]-GLP-1]-(7-36)NH2 to each well of the assay plate. A 25 μl aliquot was reserved for measuring total counts/well.
The assay plate was incubated for 2 h at 30° C.
The assay plate was centrifuged for 10 min.
The assay plate was read in a Packard TopCount NXT instrument.
The data from the TopCount instrument were transferred to GraphPad Prism software. The software averaged the values for the replicates and performed a non-linear regression. IC50 values were calculated by the software and reported in nM.

Data set [3] concerns the target T1, human GLP-1 receptor. The data set can be described thus: In vitro potency, CRE luciferase reporter gene assay in BHK cells expressing the human GLP-1 receptor. Particulars: whole cell reporter gene assay, 3 h incubation, no HSA, averages of at least two replicates. The format is cell-based. The method, boiled down:
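Stably transfected BHK cells (5×10^3/well) expressing human GLP-1R with a CRE-luciferase reporter; compounds diluted in buffer with 2% ovalbumin and 0.2% Pluronic F-68, final 1×10^−7 to 1×10^−14 M. Incubated 3 h at 37 °C, 5% CO2, then luminescence read; potency from non-linear log(agonist)–response fit, mean of ≥2 replicates.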
(In general: In a reporter assay the amount or activity of a reporter protein is the signal.)

T1 sequence (P43220 24-463): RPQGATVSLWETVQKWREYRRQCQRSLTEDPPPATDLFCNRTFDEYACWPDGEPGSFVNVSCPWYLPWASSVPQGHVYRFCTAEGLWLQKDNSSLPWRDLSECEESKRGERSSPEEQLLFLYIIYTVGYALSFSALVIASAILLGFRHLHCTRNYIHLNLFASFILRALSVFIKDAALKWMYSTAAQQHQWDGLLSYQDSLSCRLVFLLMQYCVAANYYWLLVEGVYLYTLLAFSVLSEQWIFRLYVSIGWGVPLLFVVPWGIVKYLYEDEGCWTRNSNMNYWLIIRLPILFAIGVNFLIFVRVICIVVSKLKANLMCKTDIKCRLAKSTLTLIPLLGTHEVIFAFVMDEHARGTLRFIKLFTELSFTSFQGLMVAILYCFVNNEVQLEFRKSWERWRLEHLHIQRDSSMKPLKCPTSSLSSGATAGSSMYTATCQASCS

The pIC50 is −log10 of the IC50, conventionally taken in molar units. Broadly, the pEC50 is the EC50 on a negative log10 scale, so that one unit is a factor of ten. Regarding `CC[C@H](C)[C@H](NC(=O)[C@H](Cc1ccccc1)NC(=O)[C@H](CCCCNC(=O)[C@@H](N)CCCCNC(=O)[C@@H](N)CCCCNC(=O)CC[C@H](NC(=O)CCCCCCCCCCCCCCCCCCC(=O)O)C(=O)O)NC(=O)[C@H](CCCNC(=N)N)NC(=O)[C@H](C)NC(=O)[C@H](C)NC(=O)[C@H](CCC(N)=O)NC(=O)[C@H](CCC(=O)O)NC(=O)[C@H](CCC(=O)O)NC(=O)[C@H](CC(C)C)NC(=O)[C@H](Cc1ccc(O)cc1)NC(=O)[C@H](CO)NC(=O)[C@H](CO)NC(=O)[C@@H](NC(=O)[C@H](CC(=O)O)NC(=O)[C@H](CO)NC(=O)[C@@H](NC(=O)[C@H](Cc1ccccc1)NC(=O)[C@@H](NC(=O)CNC(=O)[C@H](CCC(=O)O)NC(=O)C(C)(C)NC(=O)[C@@H](N)Cc1c[nH]cn1)[C@@H](C)O)[C@@H](C)O)C(C)C)C(=O)N[C@@H](C)C(=O)N[C@@H](Cc1c[nH]c2ccccc12)C(=O)N[C@@H](CC(C)C)C(=O)N[C@H](C(=O)N[C@@H](CCCNC(=N)N)C(=O)NCC(=O)N[C@@H](CCCNC(=N)N)C(=O)NCC(=O)NCC(=O)NCC(=O)NCC(=O)N[C@@H](CO)C(=O)N[C@@H](CCCCNC(=O)[C@@H](N)CCCCNC(=O)[C@@H](N)CCCCNC(=O)CC[C@H](NC(=O)CCCCCCCCCCCCCCCCCCC(=O)O)C(=O)O)C(=O)O)C(C)C` [Example 8, N{Epsilon-27}-[(2S)-2-amino-6-[[(2S)-2-amino-6-[[(4S)-4-carboxy-4-(19-carboxynonadecanoylamino)butanoyl]amino]hexanoyl]amino]hexanoyl]-[Aib8,Glu22,Arg26,Lys27,Arg34]-GLP-1-(7-37)-peptidyl-Gly-Gly-Gly-Ser-N{Epsilon}[(2S)-2-amino-6-[[(2S)-2-amino-6-[[(4S)-4-carboxy-4-(19-carboxynonadecanoylamino)butanoyl]amino]hexanoyl]amino]hexanoyl]Lys] (H-H[Aib]EGTFTSDVSSYLEEQAARK([εLys-εLys-γGlu-C20 diacid])FIAWLVRGRGGGGSK([εLys-εLys-γGlu-C20 diacid])-OH), in data set [1], the half-life was 137 h. Also, the pIC50 at human GLP-1 receptor [2] (high serum albumin (2.0% HSA final assay concentration), read-out: High HSA IC50) was 6.42; on human GLP-1 receptor [2] (low serum albumin (max. 0.001% final assay concentration), read-out: Low HSA IC50), 9.37. At human GLP-1 receptor [3], this molecule gave a pEC50 of 9.59.

By IC50 is commonly meant the concentration that inhibits the measured activity by half. A lower IC50 goes with higher potency. For `CC[C@H](C)[C@H](NC(=O)[C@H](Cc1ccccc1)NC(=O)[C@H](CCC(=O)O)NC(=O)[C@H](CCCNC(=N)N)NC(=O)[C@H](C)NC(=O)[C@H](C)NC(=O)[C@H](CCC(N)=O)NC(=O)[C@H](CCC(=O)O)NC(=O)[C@H](CCC(=O)O)NC(=O)[C@H](CC(C)C)NC(=O)[C@H](Cc1ccc(O)cc1)NC(=O)[C@H](CO)NC(=O)[C@H](CO)NC(=O)[C@@H](NC(=O)[C@H](CC(=O)O)NC(=O)[C@H](CO)NC(=O)[C@@H](NC(=O)[C@H](Cc1ccccc1)NC(=O)[C@@H](NC(=O)CNC(=O)[C@H](CCC(=O)O)NC(=O)C(C)(C)NC(=O)[C@@H](N)Cc1c[nH]cn1)[C@@H](C)O)[C@@H](C)O)C(C)C)C(=O)N[C@@H](C)C(=O)N[C@@H](Cc1c[nH]c2ccccc12)C(=O)N[C@@H](CC(C)C)C(=O)N[C@H](C(=O)N[C@@H](CCCNC(=N)N)C(=O)NCC(=O)N[C@@H](CCCNC(=N)N)C(=O)NCC(=O)N[C@@H](CCCCNC(=O)COCCOCCNC(=O)COCCOCCNC(=O)CC[C@H](NC(=O)[C@H]1CC[C@H](CNC(=O)CCCCCCCCCCCCCCCCCCC(=O)O)CC1)C(=O)O)C(=O)NCC(=O)NCC(=O)N[C@@H](CO)C(=O)N[C@@H](CCCCNC(=O)COCCOCCNC(=O)COCCOCCNC(=O)CC[C@H](NC(=O)[C@H]1CC[C@H](CNC(=O)CCCCCCCCCCCCCCCCCCC(=O)O)CC1)C(=O)O)C(=O)O)C(C)C` [Example 3] (H-H[Aib]EGTFTSDVSSYLEEQAAREFIAWLVRGRGK([AEEA-AEEA-γGlu-Trx-C20 diacid])GGSK([AEEA-AEEA-γGlu-Trx-C20 diacid])-OH), in data set [1], the half-life is 147 h. For the same molecule, the IC50 at human GLP-1 receptor [2] (High HSA IC50 (nM), high serum albumin (2.0% HSA final assay concentration)) was determined as 185 nM; at human GLP-1 receptor [2] (Low HSA IC50 (nM), low serum albumin (max. 0.001% final assay concentration)) it was 1.2 nM. On human GLP-1 receptor [3], this molecule gave a pEC50 of 10.37.

With `CC[C@H](C)[C@H](NC(=O)[C@H](Cc1ccccc1)NC(=O)[C@H](CCC(=O)O)NC(=O)[C@H](CCCNC(=N)N)NC(=O)[C@H](C)NC(=O)[C@H](C)NC(=O)[C@H](CCCCNC(=O)COCCOCCNC(=O)COCCOCCNC(=O)CC[C@H](NC(=O)C1CCC(CNC(=O)CCCCCCCCCCCCCCCCCCC(=O)O)CC1)C(=O)O)NC(=O)[C@H](CCC(=O)O)NC(=O)[C@H](CCC(=O)O)NC(=O)[C@H](CC(C)C)NC(=O)[C@H](Cc1ccc(O)cc1)NC(=O)[C@H](CO)NC(=O)[C@H](CO)NC(=O)[C@@H](NC(=O)[C@H](CC(=O)O)NC(=O)[C@H](CO)NC(=O)[C@@H](NC(=O)[C@H](Cc1ccccc1)NC(=O)[C@@H](NC(=O)CNC(=O)[C@H](CCC(=O)O)NC(=O)C(C)(C)NC(=O)[C@@H](N)Cc1c[nH]cn1)[C@@H](C)O)[C@@H](C)O)C(C)C)C(=O)N[C@@H](C)C(=O)N[C@@H](Cc1c[nH]c2ccccc12)C(=O)N[C@@H](CC(C)C)C(=O)N[C@H](C(=O)N[C@@H](CCCNC(=N)N)C(=O)NCC(=O)N[C@@H](CCCNC(=N)N)C(=O)NCC(=O)NCC(=O)NCC(=O)NCC(=O)N[C@@H](CO)C(=O)N[C@@H](CCCCNC(=O)COCCOCCNC(=O)COCCOCCNC(=O)CC[C@H](NC(=O)C1CCC(CNC(=O)CCCCCCCCCCCCCCCCCCC(=O)O)CC1)C(=O)O)C(=O)O)C(C)C` (stereo partly shown) [Example 4] (H-H[Aib]EGTFTSDVSSYLEEK([AEEA-AEEA-γGlu-X1])AAREFIAWLVRGRGGGGSK([AEEA-AEEA-γGlu-X1])-OH; N-terminus and C-terminus assumed), the half-life in data set [1] was 137 h.

Turning to `CC[C@H](C)[C@H](NC(=O)[C@H](Cc1ccccc1)NC(=O)[C@H](CCC(=O)O)NC(=O)[C@H](CCCNC(=N)N)NC(=O)[C@H](C)NC(=O)[C@H](C)NC(=O)[C@H](CCC(N)=O)NC(=O)[C@H](CCC(=O)O)NC(=O)[C@H](CCC(=O)O)NC(=O)[C@H](CC(C)C)NC(=O)[C@H](Cc1ccc(O)cc1)NC(=O)[C@H](CO)NC(=O)[C@H](CO)NC(=O)[C@@H](NC(=O)[C@H](CC(=O)O)NC(=O)[C@H](CO)NC(=O)[C@@H](NC(=O)[C@H](Cc1ccccc1)NC(=O)[C@@H](NC(=O)CNC(=O)[C@H](CCC(=O)O)NC(=O)C(C)(C)NC(=O)[C@@H](N)Cc1c[nH]cn1)[C@@H](C)O)[C@@H](C)O)C(C)C)C(=O)N[C@@H](C)C(=O)N[C@@H](Cc1c[nH]c2ccccc12)C(=O)N[C@@H](CC(C)C)C(=O)N[C@H](C(=O)N[C@@H](CCCNC(=N)N)C(=O)NCC(=O)N[C@@H](CCCNC(=N)N)C(=O)NCC(=O)N[C@@H](CCCCNC(=O)[C@@H](N)CCCCNC(=O)[C@@H](N)CCCCNC(=O)CC[C@H](NC(=O)[C@H]1CC[C@H](CNC(=O)CCCCCCCCCCCCCCCCCCC(=O)O)CC1)C(=O)O)C(=O)NCC(=O)NCC(=O)N[C@@H](CO)C(=O)N[C@@H](CCCCNC(=O)[C@@H](N)CCCCNC(=O)[C@@H](N)CCCCNC(=O)CC[C@H](NC(=O)[C@H]1CC[C@H](CNC(=O)CCCCCCCCCCCCCCCCCCC(=O)O)CC1)C(=O)O)C(=O)O)C(C)C` [Example 7] (H-H[Aib]EGTFTSDVSSYLEEQAAREFIAWLVRGRGK([εLys-εLys-γGlu-Trx-C20 diacid])GGSK([εLys-εLys-γGlu-Trx-C20 diacid])-OH), in data set [1], the half-life is 106 h.
